pIC50: −log10 of the molar value.
Key:
[1] = target: T1, human β-secretase (sBACE-Fc, soluble part AA 1-AA 460) (Homo sapiens (Human), UniProt P56817); test: TR-FRET assay; type: biochemical; conditions: TruPoint BACE1 substrate 100 nM, pH 4.5, 15 min at r.t.
Experimental: (§1) The β-secretase enzyme used in the TR-FRET is prepared as follows:
(§2) The cDNA for the soluble part of the human 13-Secretase (AA 1-AA 460) was cloned using the ASP2-Fc10-1-IRES-GFP-neoK mammalian expression vector. The gene was fused to the Fc domain of IgG1 (affinity tag) and stably cloned into HEK 293 cells.
(§3) The enzyme (truncated form) was diluted to 6 μg/mL (stock 1.3 mg/mL) and the TruPoint BACE1 Substrate to 200 nM (stock 120 μM) in reaction buffer (NaAcetate, chaps, triton x-100, EDTA pH4.5). The robotic systems Biomek FX and Velocity 11 were used for all liquid handling and the enzyme and substrate solutions were kept on ice until they were placed in the robotic system. Enzyme (9 μL) was added to the plate then 1 μL of compound in dimethylsulphoxide was added, mixed and pre-incubated for 10 minutes. Substrate (10 μL) was then added, mixed and the reaction proceeded for 15 minutes at r.t. The reaction was stopped with the addition of Stop solution (7 μL, NaAcetate, pH 9). The fluorescence of the product was measured on a Victor II plate reader with an excitation wavelength of 340 nm and an emission wavelength of 615 nm. The assay was performed in a Costar 384 well round bottom, low volume, non-binding surface plate (Corning #3676). […] The dimethylsulphoxide control, instead of test compound, defined the 100% activity level and 0% activity was defined by wells lacking enzyme (replaced with reaction buffer).

[2] = test system: sAPPβ release in SH-SY5Y cells; test: sAPPβ release assay; type: cell-based; conditions: Homo sapiens, 17 h incubation
Experimental: SH-SY5Y cells were cultured in DMEM/F-12 with Glutamax, 10% FCS and 1% non-essential amino acids and cryopreserved and stored at −140° C. at a concentration of 7.5-9.5×10^6 cells per vial. Thaw cells and seed at a conc. of around 10000 cells/well in DMEM/F-12 with Glutamax, 10% FCS and 1% non-essential amino acids to a 384-well tissue culture treated plate, […] cell susp/well. The cell plates were then incubated for 7-24 h at 37° C., 5% CO2. The cell medium was removed, followed by addition of 30 μL compound diluted in DMEM/F-12 with Glutamax, 10% FCS, 1% non-essential amino acids and 1% PeSt to a final conc. of 1% DMSO. The compounds were incubated with the cells for 17 h (overnight) at 37° C., 5% CO2. Meso Scale Discovery (MSD) plates were used for the detection of sAPPβ release. MSD sAPPβ plates were blocked in 1% BSA in Tris wash buffer (40 μL/well) for 1 h on shake at r.t. and washed 1 time in Tris wash buffer (40 μL/well). 20 μL of medium was transferred to the pre-blocked and washed MSD sAPPβ microplates, and the cell plates were further used in an ATP assay to measure cytotoxicity. The MSD plates were incubated with shaking at r.t. for 2 h and the media discarded. 10 μL detection antibody was added (1 nM) per well followed by incubation with shaking at r.t. for 2 h and then discarded. 40 μL Read Buffer was added per well and the plates were read in a SECTOR Imager.

[3] = target: T1, human β-secretase (sBACE-Fc, soluble part AA 1-AA 460); test: Diluted TR-FRET assay; type: biochemical; conditions: 50 times less enzyme, 6.5 h reaction time at r.t. in the dark; read-out: IC50 from the diluted FRET assay
Experimental: as §1, §2
as §3, with “The enzyme (truncated form) was diluted to 6 μg/mL (stock 1.3 mg/mL) and the TruPoint BACE1 Substrate to 200 nM (stock 120 μM) in reaction buffer (NaAcetate, chaps, triton x-100, EDTA pH4.5).” left out, “Substrate (10 μL) was then added, mixed and the reaction proceeded for 15 minutes at r.t.” left out

T1 sequence (P56817 22-460): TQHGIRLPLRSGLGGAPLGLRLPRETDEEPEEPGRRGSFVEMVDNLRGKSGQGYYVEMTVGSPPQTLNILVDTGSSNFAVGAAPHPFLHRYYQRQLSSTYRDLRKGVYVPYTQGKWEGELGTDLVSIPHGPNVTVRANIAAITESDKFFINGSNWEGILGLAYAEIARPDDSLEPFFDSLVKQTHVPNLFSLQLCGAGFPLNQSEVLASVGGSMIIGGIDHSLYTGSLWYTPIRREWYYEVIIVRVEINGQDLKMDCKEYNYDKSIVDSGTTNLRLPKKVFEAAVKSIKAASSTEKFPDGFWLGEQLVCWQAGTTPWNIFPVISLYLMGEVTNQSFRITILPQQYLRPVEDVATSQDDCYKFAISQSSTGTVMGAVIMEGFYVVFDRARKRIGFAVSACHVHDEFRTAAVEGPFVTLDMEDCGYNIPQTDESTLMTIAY

Row | pIC50 [1] | pIC50 [2] | pIC50 [3] | SMILES
1 | 7.15 | 8.52 |  | CO[C@H]1CC[C@]2(CC1)Oc1ccc(-c3cc(F)cc(C#N)c3)cc1C21C=C(F)C(N)=N1 (stereo partly drawn) [Example 5, 3-[(1s,4s)-5″-Amino-4″-fluoro-4-methoxydispiro[cyclohexane-1,2′-[1]benzofuran-3′,2″-pyrrol]-5′-yl]-5-fluorobenzonitrile]
2 | 6.11 | 7.72 |  | CC1(C)COc2ccc(-c3cncnc3)cc2C12C=C(F)C(N)=N2 (stereo not drawn) [Example 6, 4′-Fluoro-3,3-dimethyl-6-(pyrimidin-5-yl)spiro[chroman-4,2′-pyrrol]-5′-amine]
3 | 7.74 | 10.51 |  | CC#Cc1cncc(-c2ccc3c(c2)C2(C=C(F)C(N)=N2)[C@]2(CC[C@H](OC)CC2)C3)c1 (stereo partly drawn) [Example 3, (1r,4r)-4″-Fluoro-4-methoxy-6′-[5-(prop-1-yn-1-yl)pyridin-3-yl]-3′H-dispiro[cyclohexane-1,2′-indene-1′,2″-pyrrol]-5″amine]
4 | 5.71 | 7.25 |  | CO[C@H]1CC[C@@]2(CC1)Cc1ccc(-c3cncnc3)cc1C21C=C(F)C(N)=N1 (stereo partly drawn) [Example 2, (1s,4s)-4″-Fluoro-4-methoxy-6′-(pyrimidin-5-yl)-3′H-dispiro[cyclohexane-1,2′-indene-1,2″-pyrrol]-5″amine]
5 | 6.19 | 6.59 |  | CC1(C)COc2ccc(-c3cc(F)cc(F)c3)cc2C12C=C(F)C(N)=N2 (stereo not drawn) [Example 8, 6-(3,5-Difluorophenyl)-4′-fluoro-3,3-dimethylspiro[chroman-4,2′-pyrrol]-5′-amine]
6 | 6.11 | 7.52 |  | CC1(C)COc2ccc(-c3cncc(F)c3)cc2C12C=C(F)C(N)=N2 (stereo not drawn) [Example 7, 4′-Fluoro-6-(5-fluoropyridin-3-yl)-3,3-dimethylspiro[chroman-4,2′-pyrrol]-5′-amine]
7 | 5.42 | 6.77 |  | CC1(C)Cc2ccc(-c3cncnc3)cc2C12C=C(F)C(N)=N2 (stereo not drawn) [Example 9, 4′-fluoro-2,2-dimethyl-6-(pyrimidin-5-yl)-2,3-dihydrospiro[indene-1,2′-pyrrol]-5′-amine]
8 |  | 8.96 | 7.66 | CO[C@H]1CC[C@]2(CC1)Cc1ccc(-c3cncnc3)cc1C21C=C(F)C(N)=N1 (stereo partly drawn) [Example 1, (1r,4r)-4″-fluoro-4-methoxy-6′-(pyrimidin-5-yl)-3′H-dispiro[cyclohexane-1,2′-indene-1,2″-pyrrol]-5″amine]
9 | 6.59 | 8.96 |  | CC#Cc1cncc(-c2ccc3c(c2)C2(C=C(F)C(N)=N2)[C@]2(CC[C@@H](OC)CC2)C3)c1 (stereo partly drawn) [Example 4, (1s,4s)-4″-Fluoro-4-methoxy-6′-[5-(prop-1-yn-1-yl)pyridin-3-yl]-3′H-dispiro[cyclohexane-1,2′-indene-1′,2″-pyrrol]-5″amine]
